Experimental data published in article PMC6874179, “Development of Macrocycle Kinase Inhibitors for ALK2 Using Fibrodysplasia Ossificans Progressiva‐Derived Endothelial Cells” (JBMR Plus, 2019).
In brackets after ≈: the same amount, converted by molar mass. Like-named read-outs stand apart in the source and are kept apart here.

Columns and labels:
MST1R = target: T1, MST1R (Homo sapiens, UniProt Q04912); experiment: Proqinase Kinase profiling; format: biochemical; details: read-out: % inhibition at 100nM
T1 construct: purchased DiscoverX

PTK2 = target: T2, PTK2 (Homo sapiens, UniProt Q05397); experiment: Proqinase Kinase profiling; format: biochemical; details: read-out: % inhibition at 100nM
T2 construct: purchased DiscoverX

DYRK3 = target: T3, DYRK3 (Homo sapiens, UniProt O43781); experiment: Proqinase Kinase profiling; format: biochemical; details: read-out: % inhibition at 100nM
T3 construct: purchased DiscoverX

ALK2 wt = ALK2 wt (Homo sapiens, UniProt Q04771); experiment: RBC HotSpot Kinase assay; format: biochemical
[1] = Microsomal incubations, hLM; format: in vitro ADME; details: human, pooled liver microsomes, pH 7.4; microsomes 0.5 mg/ml, 0.5 μM compound; read-out: Metabolic clearance hLM
Experimental: Pooled human liver microsomes were purchased from Xenotech LLC (Kansas City, KS). Microsomes (0.5 mg/ml) were preincubated with 0.5 μM test compound for 7 min at 37°C in 50 mM phosphate buffer, pH 7.4. The reactions were initiated by adding prewarmed cofactor (0.44 mM NADPH). Aliquots of samples were taken at 0, 5, 10, 20 and 45 min and the reactions terminated by addition of cold acetonitrile containing an internal standard. Samples were centrifuged at 3000g for 10 min at 4°C and then supernatants were analyzed by LC/MS/MS for the amount of parent compound remaining.

Solubility determination = format: physicochemical; details: kinetic from dmso stock, 2-hour equilibrium, room temperature
Experimental: Test compound from 5 mM DMSO stock solution were diluted to 250 µM either in 50 mM PBS pH 7.4 or FaSSIF pH 6.5 in triplicate. DMSO final concentration was 5%. After a 2-hour equilibrium at room temperature and under shaking, samples were centrifuged at 3000g for 10 min at room temperature. A calibration curve was prepared in LC mobile phase from the 5 mM DMSO stock solution. Samples and calibration curve were analyzed by LC with UV detection.

p-Smad1/5 in 2H11 ECs = experiment: Western blot of p-Smad1/5 in 2H11 endothelial cells; format: cell-based, mouse; details: 2H11 cells, compound 0.5μM; for Inhibition of BMP-6-induced p-Smad1/5: BMP-6 50 ng/mL; for Inhibition of BMP-9-induced p-Smad1/5: BMP-9 1 ng/mL
Experimental: Compounds were added for 16 hours at 0.5μM before luciferase activity was measured.
Cells were seeded into 6-well plates and cultured till they reached confluence. Next, cells were stimulated as indicated and then washed with cold PBS. […] Electrophoresis was performed in 10% SDS/polyacrylamide gels. Separated proteins were transferred to nitrocellulose membranes (0.5 A at 100 V; in ice) for 1 hour. Blots were blocked in Tris-Buffered Saline solution containing 0.1% Tween 20 and 5% non-fat dry milk overnight at 4 °C, and immune-detection of specific proteins was carried out with primary antibodies (see above) followed by horseradish peroxidase-conjugated anti-mouse or anti-rabbit (GE Healthcare, Eindhoven, The Netherlands) secondary antibodies using an ECL system (Fisher Scientific, Landsmeer, The Netherlands).

[2] = Microsomal incubations, rLM; format: in vitro ADME; details: rat, liver microsomes, pH 7.4; microsomes 0.5 mg/ml, 0.5 μM compound; read-out: Metabolic clearance rLM
FOP ECFCs = experiment: Smad1/5 activation and ID-1/ID-3 expression in FOP ECFCs; format: cell-based, human; details: compound 0.5μM; for Effect on BMP-6-induced downstream signaling: BMP-6 50 ng/mL; for Effect on activin A-induced activation of Smad1/5 and gene targets ID-1 and ID-3: activin A 50 ng/mL
Experimental: Total RNA extraction was performed using NucleoSpin RNA II (Machery Nagel, Düren, Germany). There were 500 ng of RNA retro‐transcribed using RevertAid First Strand cDNA Synthesis Kits (Fisher Scientific, Landsmeer, The Netherlands), and real‐time reverse transcription‐PCR experiments were performed using SYBR Green (Bio‐Rad, Veenendaal, The Netherlands) and a Bio‐Rad CFX Connect device. A list of the oligonucleotides used can be found as online supplemental data.
Cells were incubated for 21 days in chondrogenic medium containing BMP‐6 or activin A (50 ng/mL) and LDN‐193189, OD36, or OD52 at 0.5μM, prior to Alcian Blue staining. (B) Quantification of Fig. 6 A by absorbance, after solubilization with guanidine hydrochloride. (C) Chondrogenic gene expression analysis of collagen 2 (Col2), Sox9, Matrix metalloproteinase 13 (Mmp13), and collagen X (Col X) in ATDC5 cells corresponding to (A). (D) Western blot of a representative clone of FOP endothelial colony‐forming cells (ECFCs) incubated with LDN‐193189, OD36, or OD52 (0.5μM) prior to stimulation with BMP‐6 (50 ng/mL) or activin A (50 ng/mL). (E) Expression of the BMP target genes ID1 and ID3 by qPCR in FOP ECFCs stimulated with BMP‐6 (50 ng/mL) or activin A (50 ng/mL) in the presence of the indicated compounds at 0.5μM. (F) Alizarin Red solution staining on a representative clone of FOP ECFCs incubated under osteogenic conditions with BMP‐6 (50 ng/mL) or activin A (50 ng/mL) and the indicated compounds. (G) Quantification of Fig. 6 F by absorbance, after solubilization with cetylpyridinium. (H) Osteogenic genes Collagen 1 alpha 1 (Col1a1), Runx2, and osterix (Osx) expression in a representative clone of FOP ECFCs incubated under osteogenic conditions with BMP‐6 (50 ng/mL) or activin A (50 ng/mL) and LDN‐193189, OD36, or OD52 (0.5 μM). *p < 0.05, **p < 0.01, ***p < 0.001.
Cells were seeded into 6-well plates and cultured till they reached confluence. Next, cells were stimulated as indicated and then washed with cold PBS. Lysates were prepared using 2x Sample buffer (10% SDS, 62.5 mM Tris-HCl pH 6.8, 0.002 % Bromophenol Blue, 0.7135 M (5%) β-mercaptoethanol, 10 % glycerol) and boiled for 5 minutes before loading. Electrophoresis was performed in 10% SDS/polyacrylamide gels. Separated proteins were transferred to nitrocellulose membranes (0.5 A at 100 V; in ice) for 1 hour. Blots were blocked in Tris-Buffered Saline solution containing 0.1% Tween 20 and 5% non-fat dry milk overnight at 4 °C, and immune-detection of specific proteins was carried out with primary antibodies (see above) followed by horseradish peroxidase-conjugated anti-mouse or anti-rabbit (GE Healthcare, Eindhoven, The Netherlands) secondary antibodies using an ECL system (Fisher Scientific, Landsmeer, The Netherlands).

NEK4 = target: T4, NEK4 (Homo sapiens, UniProt P51957); experiment: Proqinase Kinase profiling; format: biochemical; details: read-out: % inhibition at 100nM
T4 construct: purchased DiscoverX

SRPK3 = target: T5, SRPK3 (Homo sapiens, UniProt Q9UPE1); experiment: Proqinase Kinase profiling; format: biochemical; details: read-out: % inhibition at 100nM
T5 construct: purchased DiscoverX

CDC42BPB = target: T6, CDC42BPB (Homo sapiens, UniProt Q9Y5S2); experiment: Proqinase Kinase profiling; format: biochemical; details: read-out: % inhibition at 100nM
T6 construct: purchased DiscoverX

FYN = target: T7, FYN (Homo sapiens, UniProt P06241); experiment: Proqinase Kinase profiling; format: biochemical; details: read-out: % inhibition at 100nM
T7 construct: purchased DiscoverX

[3] = PBS buffer, aqueous buffer, 50 mM PBS pH 7.4, 5% DMSO, read-out: Solubility in µM PBS
[4] = FaSSIF pH 6.5, 5% DMSO, read-out: Solubility in µM FaSSIF

T3 sequence (O43781 whole entry): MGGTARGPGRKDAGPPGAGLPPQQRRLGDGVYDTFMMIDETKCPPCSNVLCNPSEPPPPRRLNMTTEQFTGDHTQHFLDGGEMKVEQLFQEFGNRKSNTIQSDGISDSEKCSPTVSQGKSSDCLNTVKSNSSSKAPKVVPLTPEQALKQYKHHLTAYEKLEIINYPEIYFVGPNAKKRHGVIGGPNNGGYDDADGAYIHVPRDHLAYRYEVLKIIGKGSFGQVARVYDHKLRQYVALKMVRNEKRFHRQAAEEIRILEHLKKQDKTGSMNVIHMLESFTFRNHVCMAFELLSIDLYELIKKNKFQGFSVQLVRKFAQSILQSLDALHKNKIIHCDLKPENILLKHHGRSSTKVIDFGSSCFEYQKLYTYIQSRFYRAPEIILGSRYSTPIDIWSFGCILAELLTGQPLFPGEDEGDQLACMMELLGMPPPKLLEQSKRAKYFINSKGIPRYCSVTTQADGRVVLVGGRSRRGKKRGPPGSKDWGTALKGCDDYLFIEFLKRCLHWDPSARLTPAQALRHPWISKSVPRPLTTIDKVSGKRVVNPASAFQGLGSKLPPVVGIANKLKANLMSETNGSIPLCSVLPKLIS
T4 sequence (P51957 whole entry): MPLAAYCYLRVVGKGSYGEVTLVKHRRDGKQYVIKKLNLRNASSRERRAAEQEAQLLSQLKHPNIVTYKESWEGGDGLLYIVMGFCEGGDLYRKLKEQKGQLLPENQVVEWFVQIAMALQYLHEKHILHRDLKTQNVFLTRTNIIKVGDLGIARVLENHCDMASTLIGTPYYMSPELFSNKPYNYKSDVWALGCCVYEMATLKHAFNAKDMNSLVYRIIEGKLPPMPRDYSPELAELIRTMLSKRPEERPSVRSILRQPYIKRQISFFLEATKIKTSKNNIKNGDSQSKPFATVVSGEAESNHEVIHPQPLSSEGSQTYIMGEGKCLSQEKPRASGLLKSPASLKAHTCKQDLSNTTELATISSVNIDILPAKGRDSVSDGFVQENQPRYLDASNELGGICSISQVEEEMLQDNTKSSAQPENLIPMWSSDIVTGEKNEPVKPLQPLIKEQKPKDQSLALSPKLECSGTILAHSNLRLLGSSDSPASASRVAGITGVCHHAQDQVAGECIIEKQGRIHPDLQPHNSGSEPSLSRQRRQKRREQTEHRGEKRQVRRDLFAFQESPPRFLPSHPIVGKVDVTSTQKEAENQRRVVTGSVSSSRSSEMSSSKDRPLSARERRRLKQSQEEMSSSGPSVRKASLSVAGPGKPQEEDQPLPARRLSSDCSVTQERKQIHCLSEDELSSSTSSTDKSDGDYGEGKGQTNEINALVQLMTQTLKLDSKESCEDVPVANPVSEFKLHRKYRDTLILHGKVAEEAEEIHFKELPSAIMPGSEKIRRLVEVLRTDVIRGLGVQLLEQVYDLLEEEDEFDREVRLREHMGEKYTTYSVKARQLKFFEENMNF
T6 sequence (Q9Y5S2 whole entry): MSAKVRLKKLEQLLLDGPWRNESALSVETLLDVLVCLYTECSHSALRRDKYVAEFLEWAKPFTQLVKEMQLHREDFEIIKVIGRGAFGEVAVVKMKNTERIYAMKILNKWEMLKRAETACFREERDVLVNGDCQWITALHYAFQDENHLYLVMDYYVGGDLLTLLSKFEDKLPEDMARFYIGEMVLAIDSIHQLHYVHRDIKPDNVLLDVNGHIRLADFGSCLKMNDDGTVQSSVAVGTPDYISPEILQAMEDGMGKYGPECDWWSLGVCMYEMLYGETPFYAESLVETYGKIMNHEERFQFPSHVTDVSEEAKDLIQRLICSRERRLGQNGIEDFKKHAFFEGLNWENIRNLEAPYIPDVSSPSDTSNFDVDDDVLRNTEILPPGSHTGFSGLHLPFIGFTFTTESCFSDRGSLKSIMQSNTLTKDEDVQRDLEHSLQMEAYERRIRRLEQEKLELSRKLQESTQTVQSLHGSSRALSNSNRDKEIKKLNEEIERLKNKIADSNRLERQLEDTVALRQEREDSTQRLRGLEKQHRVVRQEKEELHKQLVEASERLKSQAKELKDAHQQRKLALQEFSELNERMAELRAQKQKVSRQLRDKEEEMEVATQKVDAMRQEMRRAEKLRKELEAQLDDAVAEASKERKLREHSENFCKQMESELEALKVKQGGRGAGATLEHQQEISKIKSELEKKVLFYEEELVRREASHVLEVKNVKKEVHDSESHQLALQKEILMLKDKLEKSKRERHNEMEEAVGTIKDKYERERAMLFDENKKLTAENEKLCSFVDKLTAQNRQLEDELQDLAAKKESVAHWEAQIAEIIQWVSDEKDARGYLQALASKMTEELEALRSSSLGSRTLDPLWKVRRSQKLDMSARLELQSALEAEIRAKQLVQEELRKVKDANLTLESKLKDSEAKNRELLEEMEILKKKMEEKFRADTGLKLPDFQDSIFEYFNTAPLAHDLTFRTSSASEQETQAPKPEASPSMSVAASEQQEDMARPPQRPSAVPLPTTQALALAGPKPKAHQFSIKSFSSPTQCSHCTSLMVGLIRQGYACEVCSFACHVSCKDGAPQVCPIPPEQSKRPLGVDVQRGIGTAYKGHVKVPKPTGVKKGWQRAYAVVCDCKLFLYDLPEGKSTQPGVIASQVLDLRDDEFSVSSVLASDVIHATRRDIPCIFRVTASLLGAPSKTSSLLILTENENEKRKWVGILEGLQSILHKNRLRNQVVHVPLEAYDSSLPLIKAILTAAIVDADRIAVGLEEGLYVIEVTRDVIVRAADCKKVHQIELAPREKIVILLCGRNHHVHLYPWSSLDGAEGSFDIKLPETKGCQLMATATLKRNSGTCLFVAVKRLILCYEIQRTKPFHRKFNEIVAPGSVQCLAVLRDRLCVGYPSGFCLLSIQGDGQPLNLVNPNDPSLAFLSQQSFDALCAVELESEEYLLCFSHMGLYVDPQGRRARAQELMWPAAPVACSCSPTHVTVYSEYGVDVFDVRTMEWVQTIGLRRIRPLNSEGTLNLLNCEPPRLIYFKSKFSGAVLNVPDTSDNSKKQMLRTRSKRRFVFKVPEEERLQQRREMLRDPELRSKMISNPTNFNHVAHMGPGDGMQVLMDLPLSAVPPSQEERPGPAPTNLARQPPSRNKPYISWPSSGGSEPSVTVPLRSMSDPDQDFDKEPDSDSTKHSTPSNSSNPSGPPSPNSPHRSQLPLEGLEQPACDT
Chain of ALK2 wt (Q04771 208-502 limits assumed): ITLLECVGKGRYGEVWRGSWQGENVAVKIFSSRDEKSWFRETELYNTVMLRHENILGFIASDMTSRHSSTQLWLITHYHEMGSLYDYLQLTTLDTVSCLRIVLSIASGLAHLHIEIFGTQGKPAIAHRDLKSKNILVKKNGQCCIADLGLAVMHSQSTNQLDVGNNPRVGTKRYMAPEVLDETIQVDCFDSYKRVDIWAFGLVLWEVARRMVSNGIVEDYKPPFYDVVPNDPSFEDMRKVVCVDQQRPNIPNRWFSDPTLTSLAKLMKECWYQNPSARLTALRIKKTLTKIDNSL
T1 sequence (Q04912 25-1400): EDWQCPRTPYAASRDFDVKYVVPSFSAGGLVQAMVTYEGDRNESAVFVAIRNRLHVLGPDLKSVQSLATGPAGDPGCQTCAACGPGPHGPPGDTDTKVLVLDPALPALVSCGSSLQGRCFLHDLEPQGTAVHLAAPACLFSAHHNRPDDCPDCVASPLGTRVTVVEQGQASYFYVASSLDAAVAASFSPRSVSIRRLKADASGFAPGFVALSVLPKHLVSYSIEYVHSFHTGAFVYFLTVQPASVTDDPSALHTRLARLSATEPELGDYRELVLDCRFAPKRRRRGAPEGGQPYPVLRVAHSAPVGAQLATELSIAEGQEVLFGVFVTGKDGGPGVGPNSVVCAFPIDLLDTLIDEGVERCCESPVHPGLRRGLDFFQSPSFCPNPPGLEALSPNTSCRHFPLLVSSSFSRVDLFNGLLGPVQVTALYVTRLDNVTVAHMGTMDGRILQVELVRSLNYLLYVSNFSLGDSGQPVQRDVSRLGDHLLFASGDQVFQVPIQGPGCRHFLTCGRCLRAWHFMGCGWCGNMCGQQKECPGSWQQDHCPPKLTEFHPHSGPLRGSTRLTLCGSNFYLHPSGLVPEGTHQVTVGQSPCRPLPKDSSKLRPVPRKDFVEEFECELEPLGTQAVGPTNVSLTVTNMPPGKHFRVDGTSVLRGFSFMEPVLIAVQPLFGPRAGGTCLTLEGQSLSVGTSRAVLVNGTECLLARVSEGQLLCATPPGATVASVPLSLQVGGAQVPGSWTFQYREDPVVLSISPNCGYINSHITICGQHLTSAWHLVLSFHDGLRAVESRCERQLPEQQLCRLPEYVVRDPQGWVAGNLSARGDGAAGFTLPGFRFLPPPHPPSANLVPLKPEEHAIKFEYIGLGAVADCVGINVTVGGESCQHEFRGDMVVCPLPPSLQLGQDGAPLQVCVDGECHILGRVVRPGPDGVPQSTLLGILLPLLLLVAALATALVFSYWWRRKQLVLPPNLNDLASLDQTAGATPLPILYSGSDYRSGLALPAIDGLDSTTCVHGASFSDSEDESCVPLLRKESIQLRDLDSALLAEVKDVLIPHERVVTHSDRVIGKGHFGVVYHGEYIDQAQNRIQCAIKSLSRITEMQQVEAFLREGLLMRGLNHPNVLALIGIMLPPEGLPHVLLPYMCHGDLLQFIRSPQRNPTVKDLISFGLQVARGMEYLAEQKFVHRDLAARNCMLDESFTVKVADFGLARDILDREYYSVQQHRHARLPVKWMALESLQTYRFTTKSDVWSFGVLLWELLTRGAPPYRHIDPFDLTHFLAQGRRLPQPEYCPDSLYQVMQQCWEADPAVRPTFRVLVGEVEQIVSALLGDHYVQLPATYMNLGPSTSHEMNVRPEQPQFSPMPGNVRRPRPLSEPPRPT

SMILES: Clc1cc2cc(c1)-c1cnn3ccc(nc13)NCCOCCO2 [OD36]
- inhibition at 0.1 µM (MST1R): -3%
- inhibition at 0.1 µM (PTK2): 18%
- inhibition at 0.1 µM (DYRK3): 0%
- IC50 (ALK2 wt): 47 nM
- microsomal CLint at 0.5 μM [1]: 59 µL/min/mg
- solubility at 2 h (Solubility determination; [3]): 2 µM (≈ 0.662 µg/mL)
- solubility at 2 h (Solubility determination; [4]): 212 µM (≈ 70.1 µg/mL)
- Inhibition of BMP-6-induced p-Smad1/5 (p-Smad1/5 in 2H11 ECs): only inhibited BMP‐9‐induced p‐Smad1/5
- Inhibition of BMP-9-induced p-Smad1/5 (p-Smad1/5 in 2H11 ECs): only inhibited BMP‐9‐induced p‐Smad1/5
- microsomal CLint at 0.5 μM [2]: 74 µL/min/mg
- Effect on BMP-6-induced downstream signaling (FOP ECFCs): less effective
- Effect on activin A-induced activation of Smad1/5 and gene targets ID-1 and ID-3 (FOP ECFCs): completely prevented
- inhibition at 0.1 µM (NEK4): 2%
- inhibition at 0.1 µM (SRPK3): 9%
- inhibition at 0.1 µM (CDC42BPB): 7%
- inhibition at 0.1 µM (FYN): 59%

SMILES: c1ccc2c(-c3cnn4cc(-c5ccc(N6CCNCC6)cc5)cnc34)ccnc2c1 [LDN-193189, reference compound]
- microsomal CLint at 0.5 μM [1]: 61 µL/min/mg
- solubility at 2 h (Solubility determination; [3]): 5 µM (≈ 2.03 µg/mL)
- solubility at 2 h (Solubility determination; [4]): 49 µM (≈ 19.9 µg/mL)
- Inhibition of BMP-6-induced p-Smad1/5 (p-Smad1/5 in 2H11 ECs): efficiently blocked
- Inhibition of BMP-9-induced p-Smad1/5 (p-Smad1/5 in 2H11 ECs): efficiently blocked
- microsomal CLint at 0.5 μM [2]: 185 µL/min/mg
- Effect on activin A-induced activation of Smad1/5 and gene targets ID-1 and ID-3 (FOP ECFCs): inhibited

SMILES: Cc1cc2cc(c1)-c1cnn3ccc(nc13)NCCNC(=O)CCN(C)C2 [OD52]
- inhibition at 0.1 µM (MST1R): -24%
- inhibition at 0.1 µM (PTK2): -1%
- inhibition at 0.1 µM (DYRK3): -5%
- IC50 (ALK2 wt): 72 nM
- microsomal CLint at 0.5 μM [1]: 72 µL/min/mg
- solubility at 2 h (Solubility determination; [3]): 140 µM (≈ 51 µg/mL)
- solubility at 2 h (Solubility determination; [4]): 240 µM (≈ 87.5 µg/mL)
- Inhibition of BMP-6-induced p-Smad1/5 (p-Smad1/5 in 2H11 ECs): only inhibited BMP‐9‐induced p‐Smad1/5
- Inhibition of BMP-9-induced p-Smad1/5 (p-Smad1/5 in 2H11 ECs): only inhibited BMP‐9‐induced p‐Smad1/5
- microsomal CLint at 0.5 μM [2]: 32 µL/min/mg
- Effect on BMP-6-induced downstream signaling (FOP ECFCs): less effective
- Effect on activin A-induced activation of Smad1/5 and gene targets ID-1 and ID-3 (FOP ECFCs): completely prevented
- inhibition at 0.1 µM (NEK4): -3%
- inhibition at 0.1 µM (SRPK3): -5%
- inhibition at 0.1 µM (CDC42BPB): 11%
- inhibition at 0.1 µM (FYN): 6%
